≈ marks a conversion by molar mass, not a printed value.
Columns and labels:
Serratia marcescens = assay: Evaluated for its antimicrobial activity against Serratia marcescens (27117); type: functional
[1] = Evaluated for its in vitro antimicrobial activity against Staphylococcus equisimilis (6580C); type: functional
Bacillus subtilis = assay: Evaluated for its in vitro antimicrobial activity against Bacillus subtilis (6633); type: functional
Pseudomonas aeruginosa = assay: Evaluated for its antimicrobial activity against Pseudomonas aeruginosa (27853); type: functional
Salmonella typhimurium = assay: Evaluated for its antimicrobial activity against Salmonella Typhimurium (14028); type: functional, Salmonella enterica subsp. enterica serovar Typhimurium; conditions: Salmonella enterica
Escherichia coli = assay: Evaluated for its antimicrobial activity against Escherichia coli (25922); type: functional
Proteus mirabilis = assay: Evaluated for its antimicrobial activity against Proteus mirabilis (25933); type: functional
Klebsiella pneumoniae = assay: Evaluated for its antimicrobial activity against Klebsiella pneumoniae (10031); type: functional
Micrococcus luteus = assay: Evaluated for its antimicrobial activity against Micrococcus luteus (9341); type: functional
Staphylococcus aureus = assay: Evaluated for its in vitro antimicrobial activity against Staphylococcus aureus (6538p); type: functional
[2] = In vitro minimal hemolytic activity was determined; type: functional

Structure (SMILES)	MIC (Serratia marcescens)	MIC [1]	MIC (Bacillus subtilis)	MIC (Pseudomonas aeruginosa)	MIC (Salmonella typhimurium)	MIC (Escherichia coli)	MIC (Proteus mirabilis)	MIC (Klebsiella pneumoniae)	MIC (Micrococcus luteus)	MIC (Staphylococcus aureus)	MHC [2]
C[C@H](COC(=O)NCCCNCCCCNCCC[N+](C)(C)C)[C@H]1CC[C@H]2[C@@H]3CC[C@@H]4C[C@H](O)CC[C@]4(C)[C@H]3CC[C@]12C	> 100 µg/mL	1.56 µg/mL	1.56 µg/mL	3.13 µg/mL	12.5 µg/mL	12.5 µg/mL	> 100 µg/mL	> 100 µg/mL	1.56 µg/mL	0.78 µg/mL	25 µg/mL
C[C@H](COC(=O)NCCCNCCCCN)[C@H]1CC[C@H]2[C@@H]3[C@H](O)C[C@H]4C[C@H](O)CC[C@]4(C)[C@H]3CC[C@]12C	> 100 µg/mL	12.5 µg/mL (≈ 24 µM)	6.25 µg/mL (≈ 12 µM)	25 µg/mL (≈ 47.9 µM)	> 100 µg/mL	50 µg/mL (≈ 95.8 µM)	> 100 µg/mL	> 100 µg/mL	3.13 µg/mL (≈ 6 µM)	3.13 µg/mL (≈ 6 µM)	100 µg/mL
C[C@H](COC(=O)NCCCNCCCCN)[C@H]1CC[C@H]2[C@@H]3CC[C@H]4C[C@H](O)CC[C@]4(C)[C@H]3CC[C@]12C	> 100 µg/mL	12.5 µg/mL (≈ 24.7 µM)	6.25 µg/mL (≈ 12.4 µM)	> 100 µg/mL	12.5 µg/mL (≈ 24.7 µM)	> 100 µg/mL	> 100 µg/mL	1.56 µg/mL (≈ 3.08 µM)	3.13 µg/mL (≈ 6.19 µM)	3.13 µg/mL (≈ 6.19 µM)	25 µg/mL
C[C@H](COC(=O)NCCCNCCCCNCCC[N+](C)(C)C)[C@H]1CC[C@H]2[C@@H]3CC[C@H]4C[C@H](O)CC[C@]4(C)[C@H]3CC[C@]12C	> 100 µg/mL	1.56 µg/mL	1.56 µg/mL	25 µg/mL	> 100 µg/mL	6.25 µg/mL	> 100 µg/mL	6.25 µg/mL	3.13 µg/mL	1.56 µg/mL	25 µg/mL
C[C@H](COC(=O)NCCCNCCCCN)[C@H]1CC[C@H]2[C@@H]3[C@H](F)C[C@H]4C[C@H](O)CC[C@]4(C)[C@H]3CC[C@]12C	> 100 µg/mL	6.25 µg/mL (≈ 11.9 µM)	3.13 µg/mL (≈ 5.98 µM)	12.5 µg/mL (≈ 23.9 µM)	> 100 µg/mL	12.5 µg/mL (≈ 23.9 µM)	> 100 µg/mL	12.5 µg/mL (≈ 23.9 µM)	3.13 µg/mL (≈ 5.98 µM)	3.13 µg/mL (≈ 5.98 µM)	50 µg/mL
C[C@H](COC(=O)NCCCNCCCCN)[C@H]1CC[C@H]2[C@@H]3CC[C@@H]4C[C@H](O)CC[C@]4(C)[C@H]3CC[C@]12C	> 100 µg/mL	3.13 µg/mL (≈ 6.19 µM)	3.13 µg/mL (≈ 6.19 µM)	> 100 µg/mL	12.5 µg/mL (≈ 24.7 µM)	25 µg/mL (≈ 49.4 µM)	> 100 µg/mL	3.13 µg/mL (≈ 6.19 µM)	1.56 µg/mL (≈ 3.08 µM)	0.78 µg/mL (≈ 1.54 µM)	25 µg/mL
CC(C)[C@@H](CC[C@@H](C)[C@H]1CC[C@H]2[C@@H]3[C@H](O)C[C@H]4C[C@@H](NCCCNCCCCN)CC[C@]4(C)[C@H]3CC[C@]12C)OS(=O)(=O)O [SQUALAMINE]	> 100 µg/mL	3.13 µg/mL (≈ 4.98 µM)	3.13 µg/mL (≈ 4.98 µM)	> 100 µg/mL	> 100 µg/mL	> 100 µg/mL	> 100 µg/mL	12.5 µg/mL (≈ 19.9 µM)	3.13 µg/mL (≈ 4.98 µM)	6.25 µg/mL (≈ 9.95 µM)	

Reference: ChEMBL document CHEMBL1134705, “Synthesis and antimicrobial activity of new 3 alpha-hydroxy-23,24-bisnorcholane polyamine carbamates” (2001)
